According to publication PMC9027532, “Preclinical Pharmacokinetic Studies of a Novel Diuretic Inhibiting Urea Transporters” (Molecules, 2022):
Entries after “also recorded” stand apart in the source; their conditions may differ.

Assay: Pharmacokinetic study in rats (plasma, LC-MS/MS, NCA)
Conditions: for concentration at 0.083 h / concentration at 0.167 h / concentration at 0.25 h / concentration at 0.5 h / concentration at 1 h / concentration at 2 h / concentration at 4 h / concentration at 6 h / concentration at 8 h / concentration at 12 h / concentration at 24 h: Mean plasma concentration
[1] = male, Sprague-Dawley, rat, plasma, po, 100 mg/kg
[2] = male, Sprague-Dawley, rat, plasma, po, 100 mg/kg, rats, multiple p.o. 100 mg/kg, twice per day for 7 days
[3] = male, Sprague-Dawley, rat, plasma, po, 100 mg/kg, rats, single p.o. 100 mg/kg
[4] = male, Sprague-Dawley, rat, plasma, po, 100 mg/kg, rats, multiple p.o. 100 mg/kg

SMILES: CC(=O)Nc1ccc(NC(=O)c2ccc(C(C)=O)o2)cc1 [Compound 25a, N-(4-acetamidophenyl)-5-acetylfuran-2-carboxamide]
- Tmax (male, Sprague-Dawley, rat, plasma, po, 50 mg/kg, tmax, rats, single p.o. 50 mg/kg): 0.5 h
- AUC(0-inf) [1]: 12100 ng·h/mL
- AUC(0-t) [1]: 11800 ng·h/mL
- CL/F [2]: 137 mL/min/kg
- CL/F [3]: 240 mL/min/kg
- Cmax [2]: 1710 ± 185 ng/mL
- Cmax [3]: 1320 ± 228 ng/mL
- bioavailability (male, Sprague-Dawley, rat, plasma, po, 100 mg/kg, F (oral bioavailability), rats, multiple p.o. 100 mg/kg, twice per day for 7 days): 23.5 ± 2.3%
- bioavailability (male, Sprague-Dawley, rat, plasma, po, 100 mg/kg, F (oral bioavailability), rats, single p.o. 100 mg/kg): 13.8 ± 0.8%
- MRT [2]: 6.5 ± 0.6 h
- MRT [3]: 5.3 ± 0.3 h
- concentration at 0.083 h [4]: 681 ± 97 ng/mL
- concentration at 0.083 h [3]: 1080 ± 287 ng/mL
- concentration at 0.167 h [4]: 936 ± 102 ng/mL
- concentration at 0.167 h [3]: 1320 ± 235 ng/mL
- concentration at 0.25 h [4]: 1090 ± 192 ng/mL
- concentration at 0.25 h [3]: 1210 ± 196 ng/mL
- concentration at 0.5 h [4]: 1260 ± 168 ng/mL
- concentration at 0.5 h [3]: 1030 ± 124 ng/mL
- concentration at 1 h [4]: 1410 ± 283 ng/mL
- concentration at 1 h [3]: 734 ± 134 ng/mL
- concentration at 2 h [4]: 1710 ± 185 ng/mL
- concentration at 2 h [3]: 687 ± 146 ng/mL
- concentration at 4 h [4]: 1080 ± 110 ng/mL
- concentration at 4 h [3]: 1130 ± 245 ng/mL
- concentration at 6 h [4]: 717 ± 196 ng/mL
- concentration at 6 h [3]: 835 ± 178 ng/mL
- concentration at 8 h [4]: 494 ± 111 ng/mL
- concentration at 8 h [3]: 596 ± 126 ng/mL
- concentration at 12 h [4]: 245 ± 73.6 ng/mL
- concentration at 12 h [3]: 173 ± 36.7 ng/mL
- concentration at 24 h [4]: 28.1 ± 85.9 ng/mL
- concentration at 24 h [3]: 10.9 ± 6.6 ng/mL
- half-life (male, Sprague-Dawley, rat, plasma, po, 100 mg/kg, half-life, rats, single oral doses 25, 50, 100 mg/kg): 2.6 to 3 h
- half-life (male, Sprague-Dawley, rat, plasma, po, 100 mg/kg, t1/2, rats, multiple p.o. 100 mg/kg, twice per day for 7 days): 5.03 ± 0.82 h
- Tmax at 7 days (male, Sprague-Dawley, rat, plasma, po, 100 mg/kg, tmax, rats, multiple p.o. 100 mg/kg, twice per day for 7 days): ~2 h
- Tmax (male, Sprague-Dawley, rat, plasma, po, 100 mg/kg, tmax, rats, single p.o. 100 mg/kg): ~0.17 h
- bioavailability (male, Sprague-Dawley, rat, plasma, po, oral bioavailability, SD rats, oral administration, overall): ≤ 20%
- time of second plasma peak concentration (rats, after intravenous injection): Approximately 2 h
- time to reach maximum plasma concentration (Cmax) (rats, after oral administration): ≤ 0.5 h
- time of second plasma peak concentration (rats, after oral dosing): ~4 h
- V/F (rats, multiple p.o. 100 mg/kg, twice per day for 7 days): 59.8 ± 11.8 L/kg
- bioavailability of 25a relative to lead compound 1H (rats, oral): approximately fourfold; also recorded: approximately four times higher
- V (V/F row) (rats, single i.v. 1 mg/kg): 2.6 ± 1.4 L/kg
- V/F (rats, single p.o. 25 mg/kg): 40.9 ± 7.4 L/kg
- V/F (rats, single p.o. 50 mg/kg): 40.1 ± 10.8 L/kg
- AUC0–∞ (rats, single p.o. 100 mg/kg): 6957.4 ± 345.1 ng·h/mL
- V/F (rats, single p.o. 100 mg/kg): 63.0 ± 17.6 L/kg
- t1/2 (rats, single p.o. 100 mg/kg): 3.04 ± 0.70 h
- clearance (read-out: CL (CL/F row), rats, single i.v. 1 mg/kg): 35 mL/min/kg
